From ChEMBL document CHEMBL3526031, “Mechanistic studies on the absorption and disposition of scutellarin in humans: selective OATP2B1-mediated hepatic uptake is a likely key determinant for its unique pharmacokinetic characteristics” (Drug Metab Dispos, 2012)

Experiments:
[1] = target: T1, Solute carrier organic anion transporter family member 2B1 (Homo sapiens, UniProt O94956); assay: Drug uptake assessed as OATP2B1 (unknown origin)-mediated drug transport expressed in HEK293 cells by LC-MS/MS analysis; format: ADME, cell-based
T1 sequence (O94956 whole entry): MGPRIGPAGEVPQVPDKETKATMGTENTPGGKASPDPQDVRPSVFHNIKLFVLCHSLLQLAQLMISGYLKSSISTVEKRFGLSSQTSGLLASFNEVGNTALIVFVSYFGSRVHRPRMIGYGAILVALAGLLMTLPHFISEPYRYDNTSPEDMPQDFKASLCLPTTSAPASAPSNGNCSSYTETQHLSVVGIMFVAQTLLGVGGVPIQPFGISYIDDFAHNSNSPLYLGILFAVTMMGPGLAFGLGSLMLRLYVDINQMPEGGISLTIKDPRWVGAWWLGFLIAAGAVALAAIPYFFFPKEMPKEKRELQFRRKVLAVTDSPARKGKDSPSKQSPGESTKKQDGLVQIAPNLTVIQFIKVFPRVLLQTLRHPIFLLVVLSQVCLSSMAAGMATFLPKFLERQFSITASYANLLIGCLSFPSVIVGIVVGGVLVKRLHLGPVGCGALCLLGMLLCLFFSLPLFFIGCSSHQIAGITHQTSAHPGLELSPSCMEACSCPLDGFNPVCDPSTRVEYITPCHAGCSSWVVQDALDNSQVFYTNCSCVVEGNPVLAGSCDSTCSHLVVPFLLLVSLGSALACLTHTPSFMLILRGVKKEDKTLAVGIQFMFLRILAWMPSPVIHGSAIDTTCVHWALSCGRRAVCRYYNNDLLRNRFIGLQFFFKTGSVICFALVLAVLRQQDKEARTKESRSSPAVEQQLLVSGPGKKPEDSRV

[2] = target: T2, UDP-glucuronosyltransferase 1A8 (Homo sapiens, UniProt Q9HAW9); assay: Drug metabolism assessed as human recombinant UGT1A8-mediated formation of scutellarein-6,7-diglucuronide after 25 mins by HPLC/UV analysis; format: ADME; details: recombinant enzyme
T2 sequence (Q9HAW9 whole entry): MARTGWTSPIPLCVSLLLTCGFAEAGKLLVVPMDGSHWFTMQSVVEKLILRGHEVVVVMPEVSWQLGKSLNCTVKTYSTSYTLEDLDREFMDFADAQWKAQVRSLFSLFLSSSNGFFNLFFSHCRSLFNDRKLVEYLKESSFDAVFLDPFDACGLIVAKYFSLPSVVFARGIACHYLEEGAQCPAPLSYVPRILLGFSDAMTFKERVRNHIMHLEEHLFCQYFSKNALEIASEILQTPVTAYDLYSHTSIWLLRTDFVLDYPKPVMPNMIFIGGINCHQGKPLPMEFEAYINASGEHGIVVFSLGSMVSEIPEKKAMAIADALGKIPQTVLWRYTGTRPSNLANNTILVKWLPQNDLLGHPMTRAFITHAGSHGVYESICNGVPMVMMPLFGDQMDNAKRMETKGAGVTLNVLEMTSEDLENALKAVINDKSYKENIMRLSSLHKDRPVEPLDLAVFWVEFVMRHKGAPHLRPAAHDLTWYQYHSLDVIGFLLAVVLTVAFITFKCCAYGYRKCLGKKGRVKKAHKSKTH

[3] = Cmax in human at 60 mg, po; format: ADME, organism-based; set-up: dose 60 mg, route oral; details: in vivo
[4] = target: T3, OATP2B1 (Homo sapiens, UniProt O94956); assay: (§1) Drug uptake assessed as OATP2B1 (unknown origin)-mediated drug transport expressed in HEK293 cells after 7 mins by LC-MS/MS analysis; format: ADME, cell-based; details: human, HEK293 cells expressing OATP2B1
T3 sequence (O94956 whole entry): T1 sequence (O94956 whole entry)

[5] = target: T1, Solute carrier organic anion transporter family member 2B1; assay: as §1; format: ADME, cell-based

Ki [1] | Vmax [2] | Compound | Cmax [3] | Km at 7 min [4] | Ki [5] | Vmax ([5]; human, hek293, 7 min)
25.9 µM | 0.465 nmol/min/mg | O=C(O)[C@H]1O[C@@H](Oc2c(O)cc3oc(-c4ccc(O)cc4)cc(=O)c3c2O)[C@H](O)[C@@H](O)[C@@H]1O | – | – | – | –
– | – | O=C(O)[C@H]1O[C@@H](Oc2cc3oc(-c4ccc(O)cc4)cc(=O)c3c(O)c2O)[C@H](O)[C@@H](O)[C@@H]1O [SCUTELLARIN] | < 4 nM | 43 µM | 25.9 µM | 113 pmol/min/mg
